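Cultured in 96-well plates, cells were exposed to test compound for 48 hours across five concentrations. Here, GI50 denotes the concentration required for 50% inhibition of growth. TGI is the concentration that stops growth completely.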
Assays:
Assay in all cases: DTP human tumour cell line panel, 48 h
[1] = system: A498 renal
[2] = system: A549 NSCLC
[3] = system: CCRF-CEM leukemia
[4] = system: HCT-116 colon
[5] = system: HS 578T breast
[6] = system: M14 melanoma
[7] = system: MDA-N
[8] = system: OVCAR-8 ovarian
[9] = system: SF-295 CNS
[10] = system: UO-31 renal
[11] = system: RXF 393 renal

SMILES	TGI [1] [µM]	TGI [2] [µM]	TGI [3] [µM]	TGI [4] [µM]	TGI [5] [µM]	TGI [6] [µM]	TGI [7] [µM]	TGI [8] [µM]	TGI [9] [µM]	TGI [10] [µM]	TGI [11] [µM]	GI50 [1] [µM]	GI50 [2] [µM]	GI50 [3] [µM]	GI50 [4] [µM]	GI50 [5] [µM]	GI50 [8] [µM]	GI50 [11] [µM]	GI50 [9] [µM]
COc1ccc2c(c1)C(=O)C1CCC(=O)N1C2c1ccc2c(c1)OCO2 (centres undefined)	38.1	51.5	13.3	14.9	88.1	29	> 100	44.2	36.3	22.4	–	–	–	–	–	–	–	–	–
O=c1c(O)cccn1C1OC(CO)C(O)C1O (centres undefined)	> 100	> 100	> 100	> 100	–	> 100	–	> 100	–	> 100	> 100	–	–	–	–	–	–	–	–
COc1ccc(NC(=O)CC(=O)N2N=C(N(c3ccccc3)c3ccccc3)CC2c2ccccc2)cc1 (centres undefined)	> 100	> 100	> 100	> 100	> 100	> 100	–	> 100	> 100	> 100	> 100	–	–	–	–	–	–	–	–
CC1(C)C=[N+]([O-])C(C)(C)N1O	–	> 10	> 10	> 10	–	> 10	> 10	> 10	> 10	> 10	> 10	–	–	–	–	–	–	–	–
Clc1nc2c(C#Cc3ccccc3)ncnc2n1C1CCCCO1 (centres undefined)	–	37.3	> 100	21.7	99.5	25.9	25.2	> 100	54.4	25.1	26.9	–	–	–	–	–	–	–	–
CC1=CC[C@](C)(O)[C@@]2(C)CC[C@H]3C(=C(C)C)C(=O)C[C@]3(C)C[C@H]12	> 50	> 50	34.2	> 50	> 50	> 50	–	> 50	> 50	> 50	> 50	–	–	–	–	–	–	–	–
COc1cccc(C23CCCC(C2)N(C)CC3OC(=O)c2ccccc2)c1OC (centres undefined)	> 100	> 100	25	> 100	78.6	29.6	37.7	38.7	77.7	> 100	–	–	–	–	–	–	–	–	–
CC(C)(Cc1ccccc1)N1C(=O)N1C(C)(C)Cc1ccccc1	> 100	77.7	61.3	> 100	> 100	> 100	> 100	> 100	–	> 100	48.3	–	–	–	–	–	–	–	–
COC(=O)c1cc(C)ccc1C1CN=NC12Cc1c(C)cc(C)cc1C2=O (centres undefined)	–	> 100	86.5	28.6	55.8	41.9	42	> 100	97.4	> 100	72.5	–	–	–	–	–	–	–	–
CC(C)(C)C(=O)N1CCN(C=O)C1=S	80.8	> 100	97.6	> 100	> 100	> 100	–	> 100	> 100	60.2	81.9	–	–	–	–	–	–	–	–
CCOC(=O)c1c(N)sc2c1C(C(=O)OCC)CCC2 (centres undefined)	> 100	> 100	> 100	> 100	> 100	> 100	> 100	> 100	–	> 100	> 100	–	–	–	–	–	–	–	–
Cc1cc2nc(-c3c(N)ncc(C#N)c3-c3ccc(Cl)cc3)[nH]c2cc1C	59.2	24.9	> 100	19.7	> 100	–	–	29.6	27.5	–	13.7	11.8	4.17	24.6	3.47	12	4.53	3.18	10
O=C1/C(=C/c2ccc(O)cc2)CCC1CNc1ccccc1 (centres undefined)	31.9	34.8	4.54	17.5	57.6	28.1	–	29.9	29.5	29	35.9	–	–	–	–	–	–	–	–
O=[N+]([O-])c1ccc2c(c1)n1c(N3CCCC3)[n+]3ccccc3c1c1c3cccc[n+]3c(N3CCCC3)n21	> 100	> 100	79.9	> 100	> 100	> 100	> 100	> 100	> 100	–	> 100	–	–	–	–	–	–	–	–
O=P(O)(O)C=C=C1CCCCC1	> 100	> 100	–	> 100	> 100	> 100	> 100	> 100	> 100	–	> 100	–	–	–	–	–	–	–	–
O=[N+]([O-])c1cc(F)ccc1Sc1ccccc1	> 10	> 10	> 10	> 10	> 10	> 10	> 10	> 10	> 10	–	> 10	–	–	–	–	–	–	–	–
COc1cccc(NC(=O)CC(=O)N2N=C(C)C(N=Nc3ccc(C(=O)O)cc3)C2=O)c1 (centres undefined)	–	> 100	> 100	> 100	> 100	> 100	> 100	> 100	> 100	> 100	> 100	–	–	–	–	–	–	–	–
COc1cc(CNC(=S)CCCCCCCCCCC(C)C)ccc1O	> 100	> 100	> 100	> 100	83.7	> 100	–	> 100	> 100	95.7	> 100	–	–	–	–	–	–	–	–
CC(C)(CN1CCCCC1)C(/C=C/c1ccccc1)=N\NC(=O)N/N=C(/C=C/c1ccccc1)C(C)(C)CN1CCCCC1	2.95	6.12	3.37	2.93	5.92	3.19	3.01	3.38	3.09	2.37	–	–	–	–	–	–	–	–	–
O=C(NCCCCCCO)c1cccc2cc3ccccc3nc12	–	31.5	> 100	33.1	71.9	–	12.9	> 100	32.8	–	37.7	–	–	–	–	–	–	–	–
Cc1nc(Nc2nc3ccccc3[nH]2)nc(Cl)c1CCCl	> 100	> 100	> 100	> 100	> 100	> 100	> 100	> 100	–	> 100	–	–	–	–	–	–	–	–	–
COc1cc2oc(=O)cc(C)c2c(OC)c1OC(C)=O	> 100	> 100	> 100	> 100	> 100	> 100	> 100	> 100	> 100	> 100	–	–	–	–	–	–	–	–	–

Source: PubChem BioAssay (NCI)
